# Measurements reported in PMC3189488 (British journal of haematology, 2010).
# What was measured:
# HL cell lines = assay: Combination of MGCD0103 with proteasome inhibitors in HL cell lines; assay type: cell-based, human; settings: 48 h, combination index <1 indicates synergy
# NF-kB = assay: p65 NF-kB nuclear translocation by Western blot; assay type: cell-based, human; settings: bortezomib 20 nmol/l with MGCD0103 1 μmol/l, 24 h
# human HDAC8 = target: T1, human HDAC8 (Homo sapiens, UniProt Q9BY41); assay: HDAC enzyme assay in vitro, HDAC8; settings: cell-free, purified enzyme
# T1 sequence (Q9BY41 1-377): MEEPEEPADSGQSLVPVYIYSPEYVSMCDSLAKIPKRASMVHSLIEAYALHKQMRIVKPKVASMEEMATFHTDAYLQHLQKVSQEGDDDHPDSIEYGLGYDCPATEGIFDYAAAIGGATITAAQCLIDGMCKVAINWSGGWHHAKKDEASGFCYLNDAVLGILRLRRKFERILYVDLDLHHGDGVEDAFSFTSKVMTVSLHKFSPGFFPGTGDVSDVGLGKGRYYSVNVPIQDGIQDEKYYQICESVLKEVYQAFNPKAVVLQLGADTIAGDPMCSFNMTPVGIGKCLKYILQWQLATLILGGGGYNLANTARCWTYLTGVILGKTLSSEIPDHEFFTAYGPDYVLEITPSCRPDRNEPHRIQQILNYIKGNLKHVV
# KM-H2 cells = assay: Apoptosis by annexin-V/propidium iodide FACS, KM-H2; assay type: cell-based, human; settings: 1 μmol/l, 48 h
# HD-LM2 cells = assay: Apoptosis by annexin-V/propidium iodide FACS, HD-LM2; assay type: cell-based, human; settings: 1 μmol/l, 48 h
# human HDAC6 = target: T2, human HDAC6 (Homo sapiens, UniProt Q9UBN7); assay: HDAC enzyme assay in vitro, HDAC6; assay type: biochemical; settings: cell-free, purified enzyme; Fig S1
# T2 sequence (Q9UBN7 1-1215): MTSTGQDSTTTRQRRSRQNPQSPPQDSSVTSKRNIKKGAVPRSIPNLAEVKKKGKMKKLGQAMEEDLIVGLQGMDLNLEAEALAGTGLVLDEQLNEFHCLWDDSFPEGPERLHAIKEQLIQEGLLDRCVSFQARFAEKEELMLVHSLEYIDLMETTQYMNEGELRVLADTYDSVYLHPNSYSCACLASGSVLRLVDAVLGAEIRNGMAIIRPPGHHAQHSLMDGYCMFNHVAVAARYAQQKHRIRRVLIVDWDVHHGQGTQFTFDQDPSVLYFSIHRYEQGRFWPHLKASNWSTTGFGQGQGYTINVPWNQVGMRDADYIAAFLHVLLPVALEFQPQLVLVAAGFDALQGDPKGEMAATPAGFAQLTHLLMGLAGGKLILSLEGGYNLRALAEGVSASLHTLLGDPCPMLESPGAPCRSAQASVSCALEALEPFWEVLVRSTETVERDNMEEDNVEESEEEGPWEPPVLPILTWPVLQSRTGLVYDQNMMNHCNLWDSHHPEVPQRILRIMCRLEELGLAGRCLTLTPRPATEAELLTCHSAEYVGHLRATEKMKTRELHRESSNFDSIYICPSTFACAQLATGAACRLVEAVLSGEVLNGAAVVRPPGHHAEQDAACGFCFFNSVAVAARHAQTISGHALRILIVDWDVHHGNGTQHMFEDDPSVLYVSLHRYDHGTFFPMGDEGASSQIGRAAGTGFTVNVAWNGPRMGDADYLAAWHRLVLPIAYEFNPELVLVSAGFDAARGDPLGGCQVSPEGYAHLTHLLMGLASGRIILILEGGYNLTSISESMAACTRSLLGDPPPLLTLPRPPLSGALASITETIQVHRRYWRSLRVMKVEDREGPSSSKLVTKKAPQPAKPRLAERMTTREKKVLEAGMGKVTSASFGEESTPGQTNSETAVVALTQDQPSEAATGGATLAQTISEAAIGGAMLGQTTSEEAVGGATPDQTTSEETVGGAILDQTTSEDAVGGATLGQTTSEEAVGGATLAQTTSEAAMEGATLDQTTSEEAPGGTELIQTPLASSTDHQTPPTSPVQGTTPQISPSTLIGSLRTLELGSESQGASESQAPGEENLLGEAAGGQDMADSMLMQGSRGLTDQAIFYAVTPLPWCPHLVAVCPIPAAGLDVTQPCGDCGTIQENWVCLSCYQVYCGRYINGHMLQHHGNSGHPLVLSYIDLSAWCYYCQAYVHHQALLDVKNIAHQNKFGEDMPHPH
# TNF-α = TNF-α secretion in HL cell supernatants by ELISA; assay type: cell-based, human; settings: within 24 h of incubation
# L428 cells = assay: Apoptosis by annexin-V/propidium iodide FACS, L428; assay type: cell-based, human; settings: 1 μmol/l, 48 h
# HDAC6 = settings: ref Fournel et al, 2008; Gloghini et al, 2009; cited from earlier work
# [1] = target: human HDAC3 with human NcoR2 (Homo sapiens, UniProt O15379); assay: HDAC enzyme assay in vitro, HDAC3; settings: cell-free, purified enzyme
# human HDAC3 with human NcoR2, sequence (O15379 whole entry, canonical isoform): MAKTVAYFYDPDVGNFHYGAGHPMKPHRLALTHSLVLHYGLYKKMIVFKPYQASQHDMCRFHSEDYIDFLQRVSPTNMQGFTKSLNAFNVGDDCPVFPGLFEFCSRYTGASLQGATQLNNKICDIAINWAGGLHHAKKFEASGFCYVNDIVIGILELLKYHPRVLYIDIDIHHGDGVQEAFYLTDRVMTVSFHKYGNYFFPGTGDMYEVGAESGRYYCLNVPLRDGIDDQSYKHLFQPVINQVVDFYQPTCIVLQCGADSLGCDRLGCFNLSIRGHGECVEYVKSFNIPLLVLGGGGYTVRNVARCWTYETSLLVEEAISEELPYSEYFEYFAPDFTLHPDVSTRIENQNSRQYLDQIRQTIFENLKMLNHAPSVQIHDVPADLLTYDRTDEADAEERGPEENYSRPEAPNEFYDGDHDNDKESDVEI
# human HDAC3 with human NcoR2, sequence (Q9Y618 395-489 partner limits assumed): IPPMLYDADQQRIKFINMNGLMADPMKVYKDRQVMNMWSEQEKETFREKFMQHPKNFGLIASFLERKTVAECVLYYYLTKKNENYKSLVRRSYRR
# HDACs 1-10 = assay: HDAC enzyme assay in vitro, purified HDAC 1-10 isoforms; settings: positive control
Compound,combination effect with MGCD0103 (HL cell lines),inhibition of HDAC8 activity (human HDAC8),percentage of apoptotic cells (KM-H2 cells) [%],percentage of apoptotic cells (HD-LM2 cells) [%],percentage of apoptotic cells (L428 cells) [%],other results
C[C@@]12OC(=O)[C@]1([C@@H](O)[C@@H]1C=CCCC1)NC(=O)[C@@H]2CCCl [NPI0052],synergistic activity,,,,,
CC(C)C[C@H](NC(=O)[C@H](Cc1ccccc1)NC(=O)c1cnccn1)B(O)O [bortezomib],synergistic antiproliferative effect,,,,,effect on MGCD0103-induced NF-kB activation (NF-kB): inhibited MGCD0103-induced NF-kB activation
Nc1ccccc1NC(=O)c1ccc(CNc2nccc(-c3cccnc3)n2)cc1 [MGCD0103],,also inhibited the activity,69,59,72,effect on HDAC6 activity (human HDAC6): no effect; TNF-α levels in supernatants (TNF-α): profoundly increased; effect on HDAC6 (HDAC6): no effect
"O=C(CCCCCCC(=O)Nc1ccccc1)NO [vorinostat, suberoylanilide hydroxamic]",,had activity,13.8,21,15,inhibition of HDAC3 activity [1]: had activity
Trichostatin A [Trichostatin-A],,,,,,potency against HDACs 1-10 compared with MGCD0103 and vorinostat (HDACs 1-10): higher potency
